Literature values, collected in publication PMC9851200, “Multiparameter phenotypic screening for endogenous TFEB and TFE3 translocation identifies novel chemical series modulating lysosome function” (Autophagy, 2022).

Key:
Set-up in all cases: method as in original PKIS2 published data
[1] = target: T1, kinases (KINOMEscan panel) (Homo sapiens, UniProt Q92630); details: DYRK2; Published KINOMEscan; ref original PKIS2 published data; cited from earlier work
T1 sequence (Q92630 1-601): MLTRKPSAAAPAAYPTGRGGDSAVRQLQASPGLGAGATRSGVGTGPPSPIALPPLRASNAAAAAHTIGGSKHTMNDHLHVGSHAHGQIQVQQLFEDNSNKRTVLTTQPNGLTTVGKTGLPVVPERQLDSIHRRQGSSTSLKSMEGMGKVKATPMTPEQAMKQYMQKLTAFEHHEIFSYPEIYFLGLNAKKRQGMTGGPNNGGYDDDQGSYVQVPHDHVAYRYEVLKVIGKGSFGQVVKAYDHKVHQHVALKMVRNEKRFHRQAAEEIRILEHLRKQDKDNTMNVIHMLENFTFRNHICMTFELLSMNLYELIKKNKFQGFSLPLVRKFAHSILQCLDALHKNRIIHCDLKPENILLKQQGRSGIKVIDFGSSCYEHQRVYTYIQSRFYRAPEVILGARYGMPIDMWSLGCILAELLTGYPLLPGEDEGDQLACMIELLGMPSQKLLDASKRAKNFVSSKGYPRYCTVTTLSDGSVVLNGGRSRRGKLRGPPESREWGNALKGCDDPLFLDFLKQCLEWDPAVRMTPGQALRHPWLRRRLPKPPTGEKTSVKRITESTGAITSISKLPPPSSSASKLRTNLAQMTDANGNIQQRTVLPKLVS

[2] = target: kinases (KINOMEscan panel) (Homo sapiens, UniProt O95819); details: MAP4K4; Published KINOMEscan; ref original PKIS2 published data; cited from earlier work
Chain of kinases (KINOMEscan panel) (Homo sapiens, UniProt O95819) (O95819 whole entry): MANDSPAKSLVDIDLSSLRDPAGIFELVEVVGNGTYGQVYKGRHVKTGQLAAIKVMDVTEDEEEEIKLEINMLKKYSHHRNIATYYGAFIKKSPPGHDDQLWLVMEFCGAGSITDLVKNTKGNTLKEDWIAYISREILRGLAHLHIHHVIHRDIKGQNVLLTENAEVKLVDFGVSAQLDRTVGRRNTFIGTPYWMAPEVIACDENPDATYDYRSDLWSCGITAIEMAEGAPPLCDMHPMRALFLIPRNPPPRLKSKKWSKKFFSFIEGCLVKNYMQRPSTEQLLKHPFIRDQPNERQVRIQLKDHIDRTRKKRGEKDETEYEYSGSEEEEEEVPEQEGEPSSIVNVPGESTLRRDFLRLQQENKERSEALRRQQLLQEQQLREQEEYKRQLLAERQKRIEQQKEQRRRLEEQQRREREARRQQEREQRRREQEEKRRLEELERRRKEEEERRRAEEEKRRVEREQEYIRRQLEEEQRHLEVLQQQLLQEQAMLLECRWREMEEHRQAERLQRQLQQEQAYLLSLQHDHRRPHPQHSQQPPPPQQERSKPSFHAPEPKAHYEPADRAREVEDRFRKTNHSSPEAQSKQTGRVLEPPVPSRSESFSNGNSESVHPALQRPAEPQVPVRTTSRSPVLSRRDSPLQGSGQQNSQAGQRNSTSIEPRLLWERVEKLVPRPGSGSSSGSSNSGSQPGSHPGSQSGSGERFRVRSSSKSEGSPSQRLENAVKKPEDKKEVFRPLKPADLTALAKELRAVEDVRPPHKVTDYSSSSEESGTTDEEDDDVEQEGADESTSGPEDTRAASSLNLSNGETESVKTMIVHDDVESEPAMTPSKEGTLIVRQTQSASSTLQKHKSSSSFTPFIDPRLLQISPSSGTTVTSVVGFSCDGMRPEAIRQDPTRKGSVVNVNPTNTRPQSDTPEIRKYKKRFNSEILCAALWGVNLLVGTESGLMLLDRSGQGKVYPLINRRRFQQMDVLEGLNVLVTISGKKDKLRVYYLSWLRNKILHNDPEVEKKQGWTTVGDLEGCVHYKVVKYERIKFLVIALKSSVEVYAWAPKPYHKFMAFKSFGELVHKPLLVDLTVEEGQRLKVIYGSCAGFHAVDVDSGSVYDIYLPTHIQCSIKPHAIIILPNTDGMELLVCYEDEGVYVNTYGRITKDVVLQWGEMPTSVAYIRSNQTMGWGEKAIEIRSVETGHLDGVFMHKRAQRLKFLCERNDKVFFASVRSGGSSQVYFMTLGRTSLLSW

[3] = target: kinases (KINOMEscan panel) (Homo sapiens, UniProt Q9H422); details: kinase HIPK3; Published KINOMEscan; ref original PKIS2 published data; cited from earlier work
[4] = target: kinases (KINOMEscan panel) (Homo sapiens, UniProt Q13523); details: PRPF4B; Published KINOMEscan; ref original PKIS2 published data; cited from earlier work
[5] = target: kinases (KINOMEscan panel) (Homo sapiens, UniProt Q00537); details: kinase CDK17; Published KINOMEscan; ref original PKIS2 published data; cited from earlier work
Chain of kinases (KINOMEscan panel) (Homo sapiens, UniProt Q00537) (Q00537 whole entry): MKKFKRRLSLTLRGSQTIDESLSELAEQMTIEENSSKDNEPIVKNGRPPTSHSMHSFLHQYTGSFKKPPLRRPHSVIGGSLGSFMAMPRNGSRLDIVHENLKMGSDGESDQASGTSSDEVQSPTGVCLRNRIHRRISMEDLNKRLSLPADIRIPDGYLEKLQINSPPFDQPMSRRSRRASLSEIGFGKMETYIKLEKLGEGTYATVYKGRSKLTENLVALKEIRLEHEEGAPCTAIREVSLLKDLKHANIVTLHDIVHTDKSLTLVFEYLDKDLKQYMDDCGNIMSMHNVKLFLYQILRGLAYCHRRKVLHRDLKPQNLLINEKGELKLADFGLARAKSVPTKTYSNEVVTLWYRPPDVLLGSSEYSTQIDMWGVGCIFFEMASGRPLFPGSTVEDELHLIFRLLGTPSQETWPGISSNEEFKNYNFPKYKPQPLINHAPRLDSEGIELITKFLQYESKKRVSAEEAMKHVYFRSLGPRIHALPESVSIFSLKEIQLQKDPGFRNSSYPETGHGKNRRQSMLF

[6] = target: kinases (KINOMEscan panel) (Homo sapiens, UniProt Q13177); details: PAK2; Published KINOMEscan; ref original PKIS2 published data; cited from earlier work
Chain of kinases (KINOMEscan panel) (Homo sapiens, UniProt Q13177) (Q13177 whole entry): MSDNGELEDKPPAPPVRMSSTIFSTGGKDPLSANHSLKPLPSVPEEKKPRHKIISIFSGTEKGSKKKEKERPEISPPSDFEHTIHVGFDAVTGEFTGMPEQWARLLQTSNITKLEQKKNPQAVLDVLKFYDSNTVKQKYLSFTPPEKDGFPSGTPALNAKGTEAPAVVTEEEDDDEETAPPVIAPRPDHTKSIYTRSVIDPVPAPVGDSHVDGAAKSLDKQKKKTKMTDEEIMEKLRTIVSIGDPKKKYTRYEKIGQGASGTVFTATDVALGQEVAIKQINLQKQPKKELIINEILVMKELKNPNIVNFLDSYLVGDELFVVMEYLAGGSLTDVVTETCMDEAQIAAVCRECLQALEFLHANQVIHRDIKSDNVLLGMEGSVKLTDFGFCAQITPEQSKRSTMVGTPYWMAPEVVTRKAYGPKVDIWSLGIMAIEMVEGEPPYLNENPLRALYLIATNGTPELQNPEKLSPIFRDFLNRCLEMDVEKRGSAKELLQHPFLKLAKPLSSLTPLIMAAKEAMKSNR

[7] = target: kinases (KINOMEscan panel) (Homo sapiens, UniProt P31749); details: kinase AKT1; Published KINOMEscan; ref original PKIS2 published data; cited from earlier work
Chain of kinases (KINOMEscan panel) (Homo sapiens, UniProt P31749) (P31749 whole entry): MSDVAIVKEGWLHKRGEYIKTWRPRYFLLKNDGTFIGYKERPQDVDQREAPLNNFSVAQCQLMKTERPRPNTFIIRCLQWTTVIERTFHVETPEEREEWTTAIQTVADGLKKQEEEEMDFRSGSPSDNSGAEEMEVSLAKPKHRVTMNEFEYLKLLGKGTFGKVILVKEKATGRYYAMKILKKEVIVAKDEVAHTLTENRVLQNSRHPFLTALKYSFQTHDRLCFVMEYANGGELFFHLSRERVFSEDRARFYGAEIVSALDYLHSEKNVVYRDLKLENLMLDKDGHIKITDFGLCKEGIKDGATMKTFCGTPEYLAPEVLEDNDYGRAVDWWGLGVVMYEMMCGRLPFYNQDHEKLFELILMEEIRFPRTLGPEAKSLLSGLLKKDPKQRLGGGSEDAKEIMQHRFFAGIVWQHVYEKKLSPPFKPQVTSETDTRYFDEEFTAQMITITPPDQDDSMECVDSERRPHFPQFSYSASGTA

[8] = target: kinases (KINOMEscan panel) (Homo sapiens, UniProt Q07002); details: kinase CDK18; Published KINOMEscan; ref original PKIS2 published data; cited from earlier work
Chain of kinases (KINOMEscan panel) (Homo sapiens, UniProt Q07002) (Q07002 whole entry): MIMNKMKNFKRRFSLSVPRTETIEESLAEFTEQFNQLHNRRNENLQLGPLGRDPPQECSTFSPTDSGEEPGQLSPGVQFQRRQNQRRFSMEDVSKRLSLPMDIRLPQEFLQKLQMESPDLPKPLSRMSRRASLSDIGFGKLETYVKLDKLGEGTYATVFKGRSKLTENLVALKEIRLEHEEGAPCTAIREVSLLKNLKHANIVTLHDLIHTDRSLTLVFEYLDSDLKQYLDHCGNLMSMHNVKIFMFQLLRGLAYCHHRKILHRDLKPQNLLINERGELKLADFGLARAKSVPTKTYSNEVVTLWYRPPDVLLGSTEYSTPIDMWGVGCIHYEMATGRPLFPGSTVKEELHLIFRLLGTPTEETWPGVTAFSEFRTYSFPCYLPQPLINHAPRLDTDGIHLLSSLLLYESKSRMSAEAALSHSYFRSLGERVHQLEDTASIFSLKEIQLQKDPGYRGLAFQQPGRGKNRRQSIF

[9] = target: kinases (KINOMEscan panel) (Homo sapiens, UniProt Q13233); details: MAP3K1; Published KINOMEscan; ref original PKIS2 published data; cited from earlier work
Chain of kinases (KINOMEscan panel) (Homo sapiens, UniProt Q13233) (Q13233 whole entry): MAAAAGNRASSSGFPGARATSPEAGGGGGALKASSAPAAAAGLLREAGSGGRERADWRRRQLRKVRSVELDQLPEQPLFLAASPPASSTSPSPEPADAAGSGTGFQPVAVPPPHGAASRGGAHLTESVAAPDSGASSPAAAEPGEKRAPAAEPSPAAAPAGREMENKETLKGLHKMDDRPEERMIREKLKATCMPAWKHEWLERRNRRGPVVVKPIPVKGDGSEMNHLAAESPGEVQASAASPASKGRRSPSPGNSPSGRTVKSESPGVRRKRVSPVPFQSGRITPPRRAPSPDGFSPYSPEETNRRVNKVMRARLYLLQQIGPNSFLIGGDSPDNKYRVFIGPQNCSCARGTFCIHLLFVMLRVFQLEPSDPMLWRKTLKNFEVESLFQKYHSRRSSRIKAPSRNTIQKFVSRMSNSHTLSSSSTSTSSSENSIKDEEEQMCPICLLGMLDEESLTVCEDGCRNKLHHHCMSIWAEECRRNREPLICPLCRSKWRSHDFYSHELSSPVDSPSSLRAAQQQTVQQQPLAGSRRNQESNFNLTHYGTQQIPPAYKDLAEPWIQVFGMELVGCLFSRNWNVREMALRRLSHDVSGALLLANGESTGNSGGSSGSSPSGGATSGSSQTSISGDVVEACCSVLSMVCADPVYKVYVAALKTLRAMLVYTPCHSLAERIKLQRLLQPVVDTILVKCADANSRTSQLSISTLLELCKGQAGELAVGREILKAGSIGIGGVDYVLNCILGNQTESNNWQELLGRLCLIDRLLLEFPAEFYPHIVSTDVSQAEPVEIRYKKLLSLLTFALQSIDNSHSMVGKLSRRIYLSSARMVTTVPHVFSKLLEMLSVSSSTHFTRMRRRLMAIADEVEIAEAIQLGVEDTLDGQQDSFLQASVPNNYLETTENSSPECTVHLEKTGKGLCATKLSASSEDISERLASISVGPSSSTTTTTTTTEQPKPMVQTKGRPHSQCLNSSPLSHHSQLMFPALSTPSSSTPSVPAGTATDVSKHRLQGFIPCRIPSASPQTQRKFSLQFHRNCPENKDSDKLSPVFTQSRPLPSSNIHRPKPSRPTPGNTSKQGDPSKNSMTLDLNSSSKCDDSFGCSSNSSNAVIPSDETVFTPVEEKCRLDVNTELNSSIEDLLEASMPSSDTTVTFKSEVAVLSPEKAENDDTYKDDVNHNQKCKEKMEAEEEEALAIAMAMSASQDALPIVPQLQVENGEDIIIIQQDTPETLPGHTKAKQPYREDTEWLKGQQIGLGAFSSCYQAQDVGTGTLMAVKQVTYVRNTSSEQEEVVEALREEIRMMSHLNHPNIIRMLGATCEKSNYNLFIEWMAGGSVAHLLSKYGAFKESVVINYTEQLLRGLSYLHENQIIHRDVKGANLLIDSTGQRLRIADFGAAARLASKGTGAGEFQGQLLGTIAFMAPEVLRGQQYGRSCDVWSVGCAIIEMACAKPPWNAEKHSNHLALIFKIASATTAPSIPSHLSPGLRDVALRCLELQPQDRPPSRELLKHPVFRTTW

[10] = target: kinases (KINOMEscan panel) (Homo sapiens, UniProt Q9UEW8); details: Published KINOMEscan; ref original PKIS2 published data; cited from earlier work
[11] = target: T2, kinases (KINOMEscan panel) (Homo sapiens, UniProt O00329); details: Published KINOMEscan; ref original PKIS2 published data; cited from earlier work
T2 sequence (O00329 1-1044): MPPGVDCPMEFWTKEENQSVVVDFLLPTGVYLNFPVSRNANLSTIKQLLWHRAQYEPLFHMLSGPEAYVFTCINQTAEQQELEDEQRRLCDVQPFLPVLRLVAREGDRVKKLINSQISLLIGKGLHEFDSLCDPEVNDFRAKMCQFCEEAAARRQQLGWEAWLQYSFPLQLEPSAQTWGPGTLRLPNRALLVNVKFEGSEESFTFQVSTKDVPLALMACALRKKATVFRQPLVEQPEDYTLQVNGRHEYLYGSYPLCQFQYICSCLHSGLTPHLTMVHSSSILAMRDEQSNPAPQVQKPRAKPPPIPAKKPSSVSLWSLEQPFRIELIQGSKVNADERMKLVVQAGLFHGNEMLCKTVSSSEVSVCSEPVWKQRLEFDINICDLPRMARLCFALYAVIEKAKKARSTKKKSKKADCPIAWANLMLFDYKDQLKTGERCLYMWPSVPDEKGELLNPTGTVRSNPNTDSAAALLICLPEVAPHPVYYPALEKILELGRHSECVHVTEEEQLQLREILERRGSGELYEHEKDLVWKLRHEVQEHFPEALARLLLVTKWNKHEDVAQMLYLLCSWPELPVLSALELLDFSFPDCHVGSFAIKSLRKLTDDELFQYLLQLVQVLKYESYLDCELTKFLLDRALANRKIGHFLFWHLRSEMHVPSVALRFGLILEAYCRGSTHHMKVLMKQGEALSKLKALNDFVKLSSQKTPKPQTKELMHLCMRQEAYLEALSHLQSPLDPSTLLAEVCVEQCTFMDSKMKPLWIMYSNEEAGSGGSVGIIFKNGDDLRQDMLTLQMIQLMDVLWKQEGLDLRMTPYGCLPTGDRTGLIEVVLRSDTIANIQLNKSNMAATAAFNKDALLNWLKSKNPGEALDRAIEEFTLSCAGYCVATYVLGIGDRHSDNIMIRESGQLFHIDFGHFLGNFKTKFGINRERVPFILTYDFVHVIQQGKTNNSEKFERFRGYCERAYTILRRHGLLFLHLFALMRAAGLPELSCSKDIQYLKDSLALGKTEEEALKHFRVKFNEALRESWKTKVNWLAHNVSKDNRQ

## Cc1cccc(-c2nc(Nc3ccncc3)c3ccccc3n2)n1 [NK215]
[1]
  KINOMEscan DYRK2: 0
[2]
  KINOMEscan MAP4K4: 0
[3]
  KINOMEscan HIPK3: 0
[4]
  KINOMEscan PRPF4B: 17
[5]
  KINOMEscan CDK17: 10
[6]
  KINOMEscan PAK2: 0
[7]
  KINOMEscan AKT1: 20
[8]
  KINOMEscan CDK18: 0
[9]
  KINOMEscan MAP3K1: 0
[10]
  KINOMEscan STK39: 0
[11]
  KINOMEscan PIK3CD: 0
